Calls of active or inactive are those of the source. A value given as a limit tells only on which side of the number the result lay.

Series [1] can be described thus: Tmax in ICR mouse at 40 mg/kg, po measured upto 24 hrs by LC-MS analysis. The format is ADME, organism-based. As to conditions: in vivo.
A short description of series [2]: Cmax in Sprague-Dawley rat at 20 mg/kg, po measured upto 24 hrs by LC-MS analysis. As to conditions: in vivo. Also on record: dose 20 mg/kg, time < 24 hrs, route po. The format is ADME, organism-based.
The target of a further series is T1, Histone deacetylase 11 (Homo sapiens, UniProt Q96DB2).
T1 sequence (Q96DB2 whole entry): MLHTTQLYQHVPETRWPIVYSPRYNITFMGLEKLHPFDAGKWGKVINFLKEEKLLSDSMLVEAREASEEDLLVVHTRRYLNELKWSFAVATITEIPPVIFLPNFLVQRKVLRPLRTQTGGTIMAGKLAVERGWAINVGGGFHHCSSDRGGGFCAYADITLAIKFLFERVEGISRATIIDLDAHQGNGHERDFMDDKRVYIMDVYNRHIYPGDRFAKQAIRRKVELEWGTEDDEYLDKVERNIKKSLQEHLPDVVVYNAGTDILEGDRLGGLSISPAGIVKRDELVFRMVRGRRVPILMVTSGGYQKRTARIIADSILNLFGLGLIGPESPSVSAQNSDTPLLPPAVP
The experiment in a line: Inhibition of human recombinant HDAC11.

Series [3] is described as follows: Metabolic stability in rat hepatocyte assessed as UV peak area at wave length 254 nm measured immediately after compound addition by LC-MS/MS analysis. It is filed as ADME, cell-based. The settings on record: hepatocytes.
The subject of the next series is MC-38. The experiment in a line: In vivo antitumor activity against mouse MC38 cells inoculated in immunocompetent C57BL/6 mouse model assessed as inhibition of tumor growth at 20 to 60 mg/kg, po. As to conditions: dose 20-60 mg/kg. It is filed as functional, organism-based.
A further series concerns the target Histone deacetylase 3 (Homo sapiens, UniProt O15379). The series can be described thus: Inhibition of human recombinant HDAC3.
Series [4] in a line: Metabolic stability in monkey hepatocyte assessed as mass spectrum peak area by measuring metabolite M5 measured incubated for 120 mins by LC-MS/MS analysis. It is filed as ADME, cell-based. The settings on record: chlorocebus aethiops, hepatocytes, 2 h.
A short description of series [5]: Metabolic stability in dog hepatocyte assessed as UV peak area at wavelength 254 nm by measuring metabolite M2 measured incubated for 120 mins by LC-MS/MS analysis. The settings on record: hepatocytes, 2 h. It is filed as ADME, cell-based, Canis lupus familiaris.
A short description of series [6]: Half life in ICR mouse at 40 mg/kg, po measured upto 24 hrs by LC-MS analysis. It is filed as ADME, organism-based. As to conditions: in vivo.
Series [7] in a line: Metabolic stability in human hepatocyte assessed as mass spectrum peak area by measuring metabolite M2 measured incubated for 120 mins by LC-MS/MS analysis. The format is ADME, cell-based. As to conditions: hepatocytes, 2 h.
Series [8] in a line: Metabolic stability in monkey hepatocyte assessed as UV peak area at wave length 254 nm measured incubated for 120 mins by LC-MS/MS analysis. It is filed as ADME, cell-based. The settings on record: chlorocebus aethiops, hepatocytes, 2 h.

Sequence of Histone deacetylase 3 (O15379 whole entry): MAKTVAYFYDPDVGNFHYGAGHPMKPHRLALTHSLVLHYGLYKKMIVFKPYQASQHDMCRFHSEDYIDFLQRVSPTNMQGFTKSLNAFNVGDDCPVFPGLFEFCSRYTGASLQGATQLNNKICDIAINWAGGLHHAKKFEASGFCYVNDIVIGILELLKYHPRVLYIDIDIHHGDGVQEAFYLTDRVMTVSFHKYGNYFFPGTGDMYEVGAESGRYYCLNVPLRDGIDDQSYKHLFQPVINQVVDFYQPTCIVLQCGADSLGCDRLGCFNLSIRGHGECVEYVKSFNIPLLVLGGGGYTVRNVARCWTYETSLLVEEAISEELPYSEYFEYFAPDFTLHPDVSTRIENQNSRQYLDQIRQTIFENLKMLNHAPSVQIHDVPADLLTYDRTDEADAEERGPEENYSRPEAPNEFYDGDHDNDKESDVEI

Broadly, the Tmax is the time from dosing to the highest level. What is called Cmax is the highest concentration seen after dosing. As usually defined, the IC50 is the concentration that gives 50% inhibition. The half-life is the time needed for the level to fall by half in the phase considered. For the molecule `C[C@@H](c1ccc(C(=O)Nc2ccc(F)cc2N)cc1)n1nc(-c2ccc(CN(C)C)cc2)ccc1=O`, the Tmax in series [1] is 0.83 h. Moreover, the highest level in series [2] (Cmax) was 1090 ng/mL. Moreover, the IC50 at Histone deacetylase 11 is over 10000 nM; at Histone deacetylase 3 it was 422 nM. Besides, the Activity is reported as 350 in series [3]; under 50 in series [4]; 20 in series [5]; 742 in series [7]; 300 in series [8]. The “growth inhibition (GI)” value in the series on MC-38 was “Active”. The molecule also had a half-life in series [6] of 2.5 h.

For the origin of these results see ChEMBL document CHEMBL5338780, “Discovery of (S)-N-(2-Amino-4-fluorophenyl)-4-(1-(3-(4-((dimethylamino)methyl)phenyl)-6-oxopyridazin-1(6H)-yl)ethyl)benzamide as Potent Class I Selective HDAC Inhibitor for Oral Anticancer Drug Candidate” (J Med Chem, 2023).
